The source of these data is patent US9914730B2, “Azaquinazoline inhibitors of Atypical protein Kinase C” (Ignyta, Inc., priority 2012, dated 2018).

This test addresses T1, full-length human PKCι (Homo sapiens, UniProt P41743).
T1 construct: Recombinant, full-length human PKCι expressed in Sf21 insect cells is also commercially available; purchased; host or cells: Sf21 insect cells
T1 sequence (P41743 1-596): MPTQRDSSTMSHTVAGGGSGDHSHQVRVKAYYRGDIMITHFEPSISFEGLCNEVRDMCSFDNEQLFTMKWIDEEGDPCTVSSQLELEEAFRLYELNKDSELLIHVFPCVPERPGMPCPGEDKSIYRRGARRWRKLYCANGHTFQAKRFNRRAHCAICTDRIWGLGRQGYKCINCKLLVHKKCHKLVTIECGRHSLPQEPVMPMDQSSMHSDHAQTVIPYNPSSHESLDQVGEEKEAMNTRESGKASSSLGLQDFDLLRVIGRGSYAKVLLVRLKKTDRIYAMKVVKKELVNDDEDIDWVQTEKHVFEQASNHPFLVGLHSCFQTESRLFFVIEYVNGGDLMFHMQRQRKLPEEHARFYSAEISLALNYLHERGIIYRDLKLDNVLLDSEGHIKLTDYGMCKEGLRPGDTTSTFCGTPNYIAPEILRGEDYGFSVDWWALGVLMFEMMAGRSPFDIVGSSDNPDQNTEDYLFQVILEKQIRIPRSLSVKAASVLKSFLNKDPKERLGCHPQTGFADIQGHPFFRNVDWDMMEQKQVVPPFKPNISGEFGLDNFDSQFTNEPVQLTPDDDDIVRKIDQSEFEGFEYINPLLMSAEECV
Briefly: PKCι IC50 IMAP assay, full-length PKCι at 150 μM ATP. It is filed as biochemical. The conditions noted are these: read-out: IC50 in IMAP assay against full length PKCi at 150 μM ATP. Put shortly: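 Dose-response IC50 values come from IMAP fluorescence polarisation after 60 min room-temperature turnover of 100 nM FAM peptide by ~15 pM insect-cell-expressed full-length PKCι at 150 μM ATP (5× KM^APP), normalised to no-compound and no-enzyme controls.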

For `CN1CCN(c2cccc(Nc3cc(-c4nc(N5CCC(O)C(O)C5)c5c(C6CC6)cncc5n4)ccn3)c2)CC1` (single isomer, unassigned) [Example 754, (3S,4S or 3R,4R)-1-(5-Cyclopropyl-2-{2-[3-(4-methyl-piperazin-1-yl)-phenylamino]-pyridin-4-yl}-pyrido[3,4-d]pyrimidin-4-yl)-piperidine-3,4-diol], the IC50 – broadly, the concentration that inhibits the measured activity by half – was under 100 nM.
Turning to `Fc1ccn2nc(Nc3cc(-c4nc(N5CCNCC5)c5c(C6CC6)cncc5n4)ccn3)nc2c1` [Example 2033, [4-(5-Cyclopropyl-4-piperazin-1-yl-pyrido[3,4-d]pyrimidin-2-yl)-pyridin-2-yl]-(7-fluoro-[1,2,4]triazolo[1,5-a]pyridin-2-yl)-amine], the IC50 was under 100 nM.
Turning to `c1ccc(-c2ccc(Nc3cc(-c4nc(N5CCNCC5)c5c(C6CC6)cncc5n4)ccn3)cc2)cc1` [Example 683, Biphenyl-4-yl-[4-(5-cyclopropyl-4-piperazin-1-yl-pyrido[3,4-d]pyrimidin-2-yl)-pyridin-2-yl]-amine], the IC50 was 1000 to 10000 nM.
With `COc1cc(N2CCOCC2)ccc1Nc1cc(-c2nc(N[C@@H]3CCNC3)c3c(OC)cncc3n2)ccn1` [Example 360, {5-Methoxy-2-[2-(2-methoxy-4-morpholin-4-yl-phenylamino)-pyridin-4-yl]-pyrido[3,4-d]pyrimidin-4-yl}-(R)-pyrrolidin-3-yl-amine], the IC50 is 100 to 1000 nM.
Regarding `O=C(NCCO)C1CCN(c2nc(-c3ccnc(Nc4c(F)cccc4F)c3)nc3cncc(C4CC4)c23)CC1` [Example 685, 1-{5-Cyclopropyl-2-[2-(2,6-difluoro-phenylamino)-pyridin-4-yl]-pyrido[3,4-d]pyrimidin-4-yl}-piperidine-4-carboxylic acid (2-hydroxy-ethyl)-amide], the IC50 is 100 to 1000 nM.
In the case of `CC1(C)CN(c2nc(-c3ccnc(Nc4nc(F)ccc4F)c3)nc3cncc(C4CC4)c23)CCN1` [Example 838, {4-[5-Cyclopropyl-4-(3,3-dimethyl-piperazin-1-yl)-pyrido[3,4-d]pyrimidin-2-yl]-pyridin-2-yl}-(3,6-difluoro-pyridin-2-yl)-amine], the IC50 is under 100 nM.
As to `Cc1[nH]c2nccc(-c3nc(N4CCNCC4)c4c(C5CC5)cncc4n3)c2c1Cl` [Example 2209, 2-(3-Chloro-2-methyl-1H-pyrrolo[2,3-b]pyridin-4-yl)-5-cyclopropyl-4-piperazin-1-yl-pyrido[3,4-d]pyrimidine], the IC50 is under 100 nM.
Next, `Clc1cncc2nc(-c3ccncc3)nc(N3CCNCC3)c12` [Example 132, 5-Chloro-4-piperazin-1-yl-2-pyridin-4-yl-pyrido[3,4-d]pyrimidine]: under 100 nM; `Fc1ccc(F)c(Nc2cc(-c3nc(N4CCNCC4)c4c(Cl)cncc4n3)ccn2)c1F` [Example 257, [4-(5-Chloro-4-piperazin-1-yl-pyrido[3,4-d]pyrimidin-2-yl)-pyridin-2-yl]-(2,3,6-trifluoro-phenyl)-amine]: 100 to 1000 nM.
Turning to `CC1(C)CN(c2nc(-c3ccnc(Nc4nc(F)c(F)cc4F)c3)nc3cncc(C4CC4)c23)CCN1` [Example 815, {4-[5-Cyclopropyl-4-(3,3-dimethyl-piperazin-1-yl)-pyrido[3,4-d]pyrimidin-2-yl]-pyridin-2-yl}-(3,5,6-trifluoro-pyridin-2-yl)-amine], the IC50 was under 100 nM.
Turning to `c1cc(-c2nc(N3CCNCC3)c3c(C4CC4)cncc3n2)cc(N[C@@H]2C[C@H]3CC[C@@H]2C3)n1` [Example 824, (1R,2R,4S)-Bicyclo[2.2.1]hept-2-yl-[4-(5-cyclopropyl-4-piperazin-1-yl-pyrido[3,4-d]pyrimidin-2-yl)-pyridin-2-yl]-amine], the IC50 is under 100 nM.
The figure for `O[C@@H]1CCN(c2nc(-c3ccnc4[nH]c(C(F)(F)F)cc34)nc3cncc(C4CC4)c23)C[C@H]1O` (racemic) [Example 1235, (+/−)-(trans)-1-[5-Cyclopropyl-2-(2-trifluoromethyl-1H-pyrrolo[2,3-b]pyridin-4-yl)-pyrido[3,4-d]pyrimidin-4-yl]-piperidine-3,4-diol] is 100 to 1000 nM; for `Fc1cnc(Nc2c(F)cccc2F)cc1-c1nc(N2CCNCC2)c2c(C3CC3)cncc2n1` [Example 764, [4-(5-Cyclopropyl-4-piperazin-1-yl-pyrido[3,4-d]pyrimidin-2-yl)-5-fluoro-pyridin-2-yl]-(2,6-difluoro-phenyl)-amine] it is under 100 nM.
As for `COc1cc(F)c(Nc2cc(-c3nc(N4CCNCC4)c4c(C5CC5)cncc4n3)ccn2)c(F)c1` [Example 590, [4-(5-Cyclopropyl-4-piperazin-1-yl-pyrido[3,4-d]pyrimidin-2-yl)-pyridin-2-yl]-(2,6-difluoro-4-methoxy-phenyl)-amine], the IC50 is under 100 nM.
Next, `COc1cncc2nc(-c3ccnc(NC(=O)CN4CCCCC4)c3)nc(N3CCNCC3)c12` [Example 210, N-[4-(5-Methoxy-4-piperazin-1-yl-pyrido[3,4-d]pyrimidin-2-yl)-pyridin-2-yl]-2-piperidin-1-yl-acetamide]: 100 to 1000 nM; `CN(C)CCNc1nc(-c2ccnc(Nc3c(F)cccc3F)c2)nc2cncc(C3CC3)c12` [Example 776, N-{5-Cyclopropyl-2-[2-(2,6-difluoro-phenylamino)-pyridin-4-yl]-pyrido[3,4-d]pyrimidin-4-yl}-N′,N′-dimethyl-ethane-1,2-diamine]: 100 to 1000 nM.
On to `N[C@H](CNc1nc(-c2ccncc2)nc2c(-c3ccc4[nH]cnc4c3)nccc12)Cc1ccccc1` [Example 116, N-[(2S)-2-amino-3-phenylpropyl]-8-(1H-1,3-benzodiazol-5-yl)-2-(pyridin-4-yl)pyrido[3,4-d]pyrimidin-4-amine], for which the IC50 was 1000 to 10000 nM.
For `FC(F)(F)c1cc2c(-c3nc(N4CCSCC4)c4c(C5CC5)cncc4n3)ccnc2[nH]1` [Example 1246, 5-Cyclopropyl-4-thiomorpholin-4-yl-2-(2-trifluoromethyl-1H-pyrrolo[2,3-b]pyridin-4-yl)-pyrido[3,4-d]pyrimidine], the IC50 lay in the range of 10000 to 40000 nM.
With `FC(F)(F)C(Nc1cc(-c2nc(N3CCNCC3)c3c(C4CC4)cncc3n2)ccn1)c1ccccc1` (stereo not shown) [Example 706, [4-(5-Cyclopropyl-4-piperazin-1-yl-pyrido[3,4-d]pyrimidin-2-yl)-pyridin-2-yl]-(2,2,2-trifluoro-1-phenyl-ethyl)-amine], the IC50 is 100 to 1000 nM.
The figure for `c1cc(Nc2cc(-c3nc(N4CCC4)c4c(C5CC5)cncc4n3)ccn2)cc(N2CCNCC2)c1` [Example 767, [4-(4-Azetidin-1-yl-5-cyclopropyl-pyrido[3,4-d]pyrimidin-2-yl)-pyridin-2-yl]-(3-piperazin-1-yl-phenyl)-amine] is 100 to 1000 nM; for `COc1cncc2nc(-c3ccnc(NC(=O)Cc4ccc(Cl)cc4)c3)nc(N3CCNCC3)c12` [Example 369, 2-(4-Chloro-phenyl)-N-[4-(5-methoxy-4-piperazin-1-yl-pyrido[3,4-d]pyrimidin-2-yl)-pyridin-2-yl]-acetamide] it is under 100 nM.
The figure for `CCOC(=O)N1CCN(c2nc(-c3ccnc4[nH]c(C(F)(F)F)cc34)nc3cncc(C4CC4)c23)CC1` [Example 1224, 4-[5-Cyclopropyl-2-(2-trifluoromethyl-1H-pyrrolo[2,3-b]pyridin-4-yl)-pyrido[3,4-d]pyrimidin-4-yl]-piperazine-1-carboxylic acid ethyl ester] is 10000 to 40000 nM.
